Experimental data from PMC8483441 (Journal of Medicinal Chemistry, 2021).
Converted amounts (≈) assume the structure as drawn. Like-named read-outs stand apart in the source and are kept apart here. Square brackets hold non-standard residues; d marks the D form. Ends that are not written are not given here. Peptide text beside a SMILES is read from it. Orn = NCCC[C@H](N)C(=O)O

Experiments:
S. enterica = format: cell-based, Salmonella enterica; details: 24 h
Protocol: (§1) Human serum was purchased from Sigma (St Louis, USA).
(§2) Incubations were kept at 37 °C for 24 h. Results are the average of three independent studies.

A. baumannii = format: cell-based, Acinetobacter baumannii; details: 24 h
Protocol: as §1, §2

S. flexneri = details: 24 h
Text: Purified horse red blood cells were acquired from Thermo Fisher Scientific (Hampshire, England). Human serum was purchased from Sigma (St Louis, USA). E. coli was obtained from the Coli Genetic Stock Center (BW25113). S. flexneri (ATCC 29903), A. baumannii (ATCC 15308), Pseudomonas sp. (ATCC 15915), and S. enterica (ATCC 14028) were obtained from the CECT (Valencia, Spain). Clinical strains were supplied by the Vall d’Hebron Hospital (Barcelona, Spain). MRC5 fibroblasts were obtained from the Cytometry and Cell Culture Facility (SCAC, UAB) and originally purchased from ATCC.
The antibiotic activity was defined by the minimum peptide concentration where the microorganism is unable to grow. The assay was done in polypropylene 96-well plates (Greiner, Frickenhausen, Germany) to avoid peptide binding to plate wells. Peptides were dissolved in water containing 0.4% w/v bovine serum albumin (BSA) and 0.02% v/v glacial acetic acid to prevent self-aggregation, following the reference protocol by Wiegand et al.,[42] based on the classical microtiter broth dilution recommended by the […]. Initial bacteria inoculum was adjusted to 5 × 10^5 CFU/mL in Mueller-Hinton (MH) medium. Incubations were kept at 37 °C for 24 h. Results are the average of three independent studies. MIC assays in the presence of serum were performed by incubating the peptide with human serum at a 1:1 ratio. Then, 10^6 cfu/mL of Pseudomonas sp. were incubated with serial dilutions of the peptides for 4 h. To determine the MBC, 50 μL from all wells were seeded into Petri plates and incubated for 24 h. The MBC concentration was attributed to the lowest concentration without detectable bacterial growth for each peptide.

Shigella flexneri = details: 50 μL from MIC wells seeded into Petri plates, 24 h; lowest concentration without detectable growth
Protocol: The antibiotic activity was defined by the minimum peptide concentration where the microorganism is unable to grow. The assay was done in polypropylene 96-well plates (Greiner, Frickenhausen, Germany) to avoid peptide binding to plate wells. Peptides were dissolved in water containing 0.4% w/v bovine serum albumin (BSA) and 0.02% v/v glacial acetic acid to prevent self-aggregation, following the reference protocol by Wiegand et al.,[42] based on the classical microtiter broth dilution recommended by the National Committee of Laboratory Safety and Standards (NCLSS). Initial bacteria inoculum was adjusted to 5 × 10^5 CFU/mL in Mueller-Hinton (MH) medium. Incubations were kept at 37 °C for 24 h. Results are the average of three independent studies. […] To determine the MBC, 50 μL from all wells were seeded into Petri plates and incubated for 24 h. The MBC concentration was attributed to the lowest concentration without detectable bacterial growth for each peptide.

Pseudomonas sp. [1] = assay: Minimum bactericidal concentration (MBC); format: cell-based; details: 50 μL from MIC wells seeded into Petri plates, 24 h; lowest concentration without detectable growth
Protocol: as §2

Salmonella enterica = format: cell-based; details: 24 h
Protocol: as §2

Escherichia coli = format: cell-based; details: 24 h
Protocol: as §2

Acinetobacter baumannii = format: cell-based; details: 24 h
Protocol: as §2

MRC-5 cells = assay: Cytotoxicity in mammalian cells (MTT assay); format: cell-based
Protocol: (§3) MRC-5 cells were grown in Eagle’s minimum essential medium (MEMα), supplemented with 10% fetal bovine serum (FBS). 96-well plates were seeded with 3 × 10^4 cells/well and cultured overnight in order to get cells adhered into the plate and then incubated with two-fold peptide serial dilutions. After 4 h of incubation, the medium containing the peptides was replaced by MEMα supplemented with FBS and 3-(4,5-dimethylthiazol-2-yl)-2,5-diphenyltetrazolium bromide (MTT) at 0.4 mg/mL and incubated for 150 min. Detection of formazan crystals in the living cells was done by cell disruption by addition of 200 μL of dimethyl sulfoxide (DMSO) followed by absorbance measuring at 600 nm in a Tecan Infinite F Nano+ microplate reader (Tecan, Germany). Results are the average of three independent studies.

[2] = Cytotoxicity in mammalian cells (MTT assay); format: cell-based; details: MRC-5 cytotoxicity (IC50)
Protocol: as §3

horse red blood cells = assay: Hemolytic activity; format: cell-based
Protocol: The peptide toxicity was determined detecting the disruption of horse red blood cells, following a previous assay report.[35] 10-fold diluted cells in PBS were centrifuged three times at 800g to eliminate the hemoglobin from disrupted cells. After the last resuspension, erythrocytes were incubated with the peptides for 4 h at 37 °C. The detection was done measuring the supernatant absorbance in a VICTOR3 multilabel plate reader (Perkin Elmer, Waltham, Massachusetts) at 540 nm in a microplate reader. Percentage of hemolysis was calculated through a pattern done with dilutions of total cell lysis done with a 1% Triton X-100 buffer. Results are the average of three independent studies.

Pseudomonas sp. [3] = assay: MIC, broth microdilution; format: cell-based; details: Pseudomonas sp. ATCC 15915; Mueller-Hinton medium, 5 × 10^5 CFU/mL, 37 °C, 24 h; average of three independent studies
Protocol: as §1, §2

E. coli = format: cell-based, Escherichia coli; details: 24 h
Protocol: as §1, §2

Pseudomonas sp. [4] = assay: MIC of peptides incubated with human serum; format: cell-based; details: peptide incubated with human serum 1:1; 10^6 cfu/mL Pseudomonas sp., 4 h
Protocol: as §2

A. baumannii 3862 = assay: MIC, clinical bacterial strain; format: cell-based
Protocol: as §1, §2

S. typhimurium 324 = assay: MIC, clinical bacterial strain; format: cell-based
Protocol: as §1, §2

A. baumannii 3879 = assay: MIC, clinical bacterial strain; format: cell-based
Protocol: as §1, §2

E. coli 116878 = assay: MIC, clinical bacterial strain; format: cell-based
Protocol: as §1, §2

E. coli cf073 = assay: MIC, clinical bacterial strain; format: cell-based
Protocol: as §1, §2

A. baumannii 3880 = assay: MIC, clinical bacterial strain; format: cell-based
Protocol: as §1, §2

P. aeruginosa 827651 = assay: MIC, clinical bacterial strain; format: cell-based
Protocol: as §1, §2

S. typhimurium 365 = assay: MIC, clinical bacterial strain; format: cell-based
Protocol: as §1, §2

A. baumannii 3878 = assay: MIC, clinical bacterial strain; format: cell-based
Protocol: as §1, §2

P. aeruginosa 827632 = assay: MIC, clinical bacterial strain; format: cell-based
Protocol: as §1, §2

Row | Compound | MIC S. enterica (S. enterica) | MIC A. baumannii (A. baumannii) | MIC S. flexneri (S. flexneri) | MBC Shigella flexneri (Shigella flexneri) | MBC Pseudomonas sp. (Pseudomonas sp. [1]) | MBC Salmonella enterica (Salmonella enterica) | MBC Escherichia coli (Escherichia coli) | MBC Acinetobacter baumannii (Acinetobacter baumannii) | IC50 [2] | hemolysis % (250 μM peptide) (horse red blood cells; red cells of horse, 4 h, 250) | MIC Pseudomonas sp. (Pseudomonas sp. [3]) | MIC E. coli (E. coli) | MIC in Pseudomonas sp., peptides incubated with human serum (Pseudomonas sp. [4]) | MIC A. baumannii 3862 (A. baumannii 3862) | MIC S. typhimurium 324 (S. typhimurium 324) | MIC A. baumannii 3879 (A. baumannii 3879) | MIC E. coli 116878 (E. coli 116878) | MIC E. coli cf073 (E. coli cf073) | MIC A. baumannii 3880 (A. baumannii 3880) | MIC P. aeruginosa 827651 (P. aeruginosa 827651) | other results
1 | CC[C@H](C)[C@H](NC(=O)[C@H](C)NC(=O)[C@H](CCCN)NC(=O)[C@H](CCSC)NC(=O)[C@H](C)NC(=O)[C@@H](NC(=O)[C@@H](NC(=O)[C@H](CCCN)NC(=O)[C@@H]1CCCN1C(=O)[C@H](CO)NC(=O)[C@@H](NC(=O)[C@H](Cc1c[nH]cn1)NC(=O)[C@H](CCC(N)=O)NC(=O)[C@@H](NC(=O)[C@H](C)NC(=O)[C@H](Cc1ccccc1)NC(=O)[C@H](Cc1c[nH]c2ccccc12)NC(=O)[C@H](CCC(N)=O)NC(=O)[C@H](C)NC(=O)[C@H](CCCN)NC(=O)[C@@H](NC(=O)[C@@H](N)Cc1ccccc1)[C@@H](C)O)[C@@H](C)CC)[C@@H](C)CC)[C@@H](C)O)[C@@H](C)CC)C(=O)N[C@@H](CC(N)=O)C(=O)N[C@@H](CC(N)=O)C(=O)N[C@@H](Cc1ccc(O)cc1)C(=O)N[C@@H](CCCN)C(=O)N[C@@H](Cc1c[nH]c2ccccc12)C(=O)N[C@@H](CCCN)C(N)=O [peptide 5] (H-FT[Orn]AQWFAIQHISP[Orn]TIAM[Orn]AINNY[Orn]W[Orn]-NH2) | >100 µM | >100 µM | 50 µM (≈ 165 µg/mL) | 50 µM (≈ 165 µg/mL) | 25 µM (≈ 82.3 µg/mL) | > 100 µM | 25 µM (≈ 82.3 µg/mL) | > 100 µM | > 300 µM | 11 ± 4% | 25 µM (≈ 82.3 µg/mL) | 25 µM (≈ 82.3 µg/mL) | – | – | – | – | – | – | – | – | MRC-5 cytotoxicity (IC50) (MRC-5 cells): No toxicity was detected
2 | RPFTRAQWFAIQHISPRTIAMRAINNYRWR-NH2 [peptide 1, hECP30] | 12.5 µM | – | 3.13 µM | 3.13 µM | 1.56 µM | 12.5 µM | 1.56 µM | – | 23 ± 4 µM | – | 1.56 µM | 1.56 µM | 25 µM | 0.78 µM | 6.25 µM | 1.56 µM | 6.25 µM | 3.13 µM | 1.56 µM | 25 µM | MIC A. baumannii (A. baumannii; A. baumannii ATCC 15308, Mueller-Hinton medium, 5 × 10^5 CFU/mL, 37 °C, average of three independent studies): 1.56 µM; MIC S. typhimurium 365 (S. typhimurium 365): 6.25 µM; MIC A. baumannii 3878 (A. baumannii 3878): 1.56 µM; MIC P. aeruginosa 827632 (P. aeruginosa 827632): 12.5 µM; MBC Acinetobacter baumannii (Acinetobacter baumannii; 50 μL from MIC wells seeded into Petri plates, lowest concentration without detectable growth): 1.56 µM; hemolytic activity at 10-fold the MIC (horse red blood cells; red cells of horse, 4 h): below 10%
3 | CC[C@H](C)[C@H](NC(=O)[C@H](C)NC(=O)[C@H](CCCN)NC(=O)[C@H](CCSC)NC(=O)[C@H](C)NC(=O)[C@@H](NC(=O)[C@@H](NC(=O)[C@H](CCCN)NC(=O)[C@@H]1CCCN1C(=O)[C@H](CO)NC(=O)[C@@H](NC(=O)[C@H](Cc1c[nH]cn1)NC(=O)[C@H](CCC(N)=O)NC(=O)[C@@H](NC(=O)[C@H](C)NC(=O)[C@H](Cc1ccccc1)NC(=O)[C@H](Cc1c[nH]c2ccccc12)NC(=O)[C@H](CCC(N)=O)NC(=O)[C@H](C)NC(=O)[C@H](CCCN)NC(=O)[C@@H](NC(=O)[C@H](Cc1ccccc1)NC(=O)[C@@H]1CCCN1C(=O)[C@@H](N)CCCN)[C@@H](C)O)[C@@H](C)CC)[C@@H](C)CC)[C@@H](C)O)[C@@H](C)CC)C(=O)N[C@@H](CC(N)=O)C(=O)N[C@@H](CC(N)=O)C(=O)N[C@@H](Cc1ccc(O)cc1)C(=O)N[C@@H](CCCN)C(=O)N[C@@H](Cc1c[nH]c2ccccc12)C(=O)N[C@@H](CCCN)C(N)=O [peptide 2] (H-[Orn]PFT[Orn]AQWFAIQHISP[Orn]TIAM[Orn]AINNY[Orn]W[Orn]-NH2) | 25 µM (≈ 87.6 µg/mL) | 6.25 µM (≈ 21.9 µg/mL) | 12.5 µM (≈ 43.8 µg/mL) | 12.5 µM (≈ 43.8 µg/mL) | 6.25 µM (≈ 21.9 µg/mL) | 25 µM (≈ 87.6 µg/mL) | 6.25 µM (≈ 21.9 µg/mL) | 6.25 µM (≈ 21.9 µg/mL) | ≤ 180 µM | 10 ± 2% | 6.25 µM (≈ 21.9 µg/mL) | 6.25 µM (≈ 21.9 µg/mL) | 50 µM | – | – | – | – | – | – | – | IC50 (MRC-5 cells; 4 h): 113 ± 8 µM; hemolysis % (250 μM peptide) (horse red blood cells): 10%
4 | CC[C@H](C)[C@H](NC(=O)[C@H](C)NC(=O)[C@H](CCCN)NC(=O)[C@H](CCSC)NC(=O)[C@H](C)NC(=O)[C@@H](NC(=O)[C@@H](NC(=O)[C@H](CCCN)NC(=O)[C@@H]1CCCN1C(=O)[C@H](CO)NC(=O)[C@@H](NC(=O)[C@H](Cc1c[nH]cn1)NC(=O)[C@H](CCC(N)=O)NC(=O)[C@@H](NC(=O)[C@H](C)NC(=O)[C@H](Cc1ccccc1)NC(=O)[C@H](Cc1c[nH]c2ccccc12)NC(=O)[C@H](CCC(N)=O)NC(=O)[C@H](C)NC(=O)[C@H](CCCN)NC(=O)[C@@H](NC(=O)[C@H](Cc1ccccc1)NC(=O)[C@H]1CCCN1C(=O)[C@@H](N)CCCN)[C@@H](C)O)[C@@H](C)CC)[C@@H](C)CC)[C@@H](C)O)[C@@H](C)CC)C(=O)N[C@@H](CC(N)=O)C(=O)N[C@@H](CC(N)=O)C(=O)N[C@@H](Cc1ccc(O)cc1)C(=O)N[C@@H](CCCN)C(=O)N[C@@H](Cc1c[nH]c2ccccc12)C(=O)N[C@@H](CCCN)C(N)=O [peptide 6] (H-[Orn][dP]FT[Orn]AQWFAIQHISP[Orn]TIAM[Orn]AINNY[Orn]W[Orn]-NH2) | 50 µM (≈ 175 µg/mL) | 12.5 µM (≈ 43.8 µg/mL) | 50 µM (≈ 175 µg/mL) | 50 µM (≈ 175 µg/mL) | 1.56 µM (≈ 5.47 µg/mL) | 50 µM (≈ 175 µg/mL) | 3.13 µM (≈ 11 µg/mL) | 12.5 µM (≈ 43.8 µg/mL) | 230 ± 40 µM | 1.1 ± 0.9% | 1.56 µM (≈ 5.47 µg/mL) | 3.13 µM (≈ 11 µg/mL) | – | 1.56 µM (≈ 5.47 µg/mL) | 25 µM (≈ 87.6 µg/mL) | 3.13 µM (≈ 11 µg/mL) | 25 µM (≈ 87.6 µg/mL) | 6.25 µM (≈ 21.9 µg/mL) | 12.5 µM (≈ 43.8 µg/mL) | 25 µM (≈ 87.6 µg/mL) | MIC S. typhimurium 365 (S. typhimurium 365): 25 µM (≈ 87.6 µg/mL); MIC A. baumannii 3878 (A. baumannii 3878): 0.78 µM (≈ 2.73 µg/mL); MIC P. aeruginosa 827632 (P. aeruginosa 827632): >100 µM
